From patent US4698422A, “Triphos and tetraphos gold compounds and ligands” (SmithKline Beckman Corporation, priority 1986, dated 1987)
Several values for one entry are separate records, joined by “and”; a condition that tells them apart may be missing. Identical values can stand only once.

Tests used:
P388 leukemia = experiment: in vivo ip P388 lymphocytic leukemia model; parameters: species or system B6D2F1 mice; settings: maximum increase in lifespan, mice bearing ip P388 leukemia; slashes = separate experiments; ip Days 1 through 5; active if ≥25 percent
Method: This tumor system is widely accepted as an antitumor agent screening tool because it is sensitive to virtually all of the clinically active antineoplastic agents; quantitative and reproducible; amenable for large-scale screening; and predictive for activity in other animal tumor models.
10^6 P388 leukemia cells are inoculated ip in B6D2F1 mice. Twenty-four hours later, if the tumor inoculum proves to be free of bacterial contamination (as determined by 24 hours incubation in thioglycollate broth), animals are randomized into groups of 6 and housed in shoebox cages. The compound to be evaluated is dissolved in a minimal volume of either N,N-dimethylacetamide (DMA) or 95% ethanol (depending upon solubility). An equal volume of saline is added; if the drug comes out of solution an equal volume of polyethoxylated castor oil is added and then saline qs to a concentration such that the desired dose is delivered in 0.5 ml. The final concentration of DMA, ethanol and polyethoxylated castor oil is […]. Dilutions for lower doses are made with saline so there is a decreasing proportion of organic solvents in the vehicle with decreasing dosage. […] Fomulations are prepared immediately prior to injection. The compound is administered ip on Days 1 through 5 (i.e. treatment is initiated 24 hrs after tumor inoculation). Each experiment includes three groups of 6 animals as untreated controls and animals treated with a positive control, cisplatin, at two dose levels. Animals are weighed as a group on Days 1, 5 and 9 and average weight change (Δwt.) is used as a reflection of toxicity. Each experiment also includes an inoculum titration--groups of 8 mice inoculated ip with 10^5 to […] P388 leukemia cells. The titration is used to calculate cell kill achieved by treatment with drugs. Animals are monitored daily for mortality and experiments are terminated after 45 days. The endpoint is median survival time (MST) and increase in lifespan (ILS) which is the percentage of increase in MST relative to untreated controls.

B6D2F female mice [1] = experiment: maximally tolerated dose in mice, ip, P388 regimen (Table A); assay type: in vivo, mouse; settings: maximally tolerated dose for B6D2F female mice, ipqDxs regimen (Days 1 through 5)
Method: (§1) 10^6 P388 leukemia cells are inoculated ip in B6D2F1 mice. Twenty-four hours later, if the tumor inoculum proves to be free of bacterial contamination (as determined by 24 hours incubation in thioglycollate broth), animals are randomized into groups of 6 and housed in shoebox cages. The compound to be evaluated is dissolved in a minimal volume of either N,N-dimethylacetamide (DMA) or 95% ethanol (depending upon solubility). An equal volume of saline is added; if the drug comes out of solution an equal volume of polyethoxylated castor oil is added and then saline qs to a concentration such that the desired dose is delivered in 0.5 ml. The final concentration of DMA, ethanol and polyethoxylated castor oil is […]. Dilutions for lower doses are made with saline so there is a decreasing proportion of organic solvents in the vehicle with decreasing dosage. These vehicles provide soluble formulations (or suspensions). Fomulations are prepared immediately prior to injection. The compound is administered ip on Days 1 through 5 (i.e. treatment is initiated 24 hrs after tumor inoculation). Each experiment includes three groups of 6 animals as untreated controls and animals treated with a positive control, cisplatin, at two dose levels. Animals are weighed as a group on Days 1, 5 and 9 and average weight change (Δwt.) is used as a reflection of toxicity. Each experiment also includes an inoculum titration--groups of 8 mice inoculated ip with 10^5 to […] P388 leukemia cells. The titration is used to calculate cell kill achieved by treatment with drugs. Animals are monitored daily for mortality and experiments are terminated after 45 days. The endpoint is median survival time (MST) and increase in lifespan (ILS) which is the percentage of increase in MST relative to untreated controls. Untreated controls inoculated ip with 10^6 P388 leukemia cells generally survive for a median of 9 to 11 days. A drug is considered active if it produces ≥25 percent ILS.
(§2) ^(a) maximally tolerated dose for B6D2F female mice on an ipqDxs

[2] = as above; assay type: in vivo, mouse; settings: mouse, in vivo, ip; maximally tolerated dose for B6D2F female mice, ipqDxs regimen (Days 1 through 5)
Method: as §1, §2

[3] = tested on: M5076 reticulum cell sarcoma; experiment: intraperitoneally implanted M5076 reticulum cell sarcoma in mice; assay type: in vivo, B6D2F female mice; settings: maximum increase in lifespan, mice bearing ip M5076; ip daily for ten days; active if ≥25% ILS
Method: (§3) Another chemosensitive tumor model is intraperitoneally (ip) implanted M5076 reticulum cell sarcoma in mice. In this system B6D2F female mice are inoculated with 0.5 ml of a 10 percent (w:v) brei of M5076 prepared from pooled subcutaneous (sc) tumors excised at about 21 days from C57B1/6 donors. Drugs are administered ip. Daily treatment is begun 24 hours after implantation and is continued for ten days. The treatment regimen for M5076 is more prolonged than for P388 because of the slower growth rate and longer control survival time of the M5076 tumor. A drug is considered active in this tumor model if it produces ≥25% ILS.

B6D2F1 mice = experiment: maximally tolerated dose in mice, ip qD × 10, B16 (Table C); assay type: in vivo, mouse; settings: maximally tolerated dose for B6D2F1 mice
Method: (§4) In this system, groups of eight B6D2F1 mice are inoculated ip with 0.5 ml of a 10% (w:v) brei of B15 melanoma prepared from pooled sc tumors excised at 14-21 days from […] donor mice. Daily treatment is begun 24 hours after tumor implantation and is continued daily for ten (10) days. The route of drug administration is ip. The mice are monitored daily for survival for sixty (60) days. Antitumor activity is assessed by prolongation of median survival time. An ILS of ≥25% indicates activity in this tumor model.
^(b) maximally tolerated dose for B6D2F1 mice on an ip qD .times

B6D2F female mice [4] = experiment: maximally tolerated dose in mice, ip qD × 10, M5076 (Table B); assay type: in vivo, mouse; settings: maximally tolerated dose for B6D2F female mice
Method: as §3
^(b) maximally tolerated dose for B6D2F female mice on an ip qD

B16 melanoma = experiment: in vivo ip B16 melanoma assay; parameters: species or system B6D2F1 mice; settings: maximum increase in lifespan, mice bearing ip B16 melanoma; slash = separate experiments; ip daily for ten days; active if ≥25%
Method: as §4

Compound | ILS (max) (P388 leukemia) | MTD (B6D2F female mice [1]) | MTD [2] | further results
μ-[Bis(2-diphenylphosphinoethyl)phenylphosphine]tris(chlorogold) [Compound 1] | 30% and 40% | 8 mg/kg |  | 
μ-[Tris(2-diphenylphosphinoethyl)phosphine]tetrakis(chlorogold) [Compound 2] | 45% | 8 mg/kg |  | 
c1ccc(P(CCP(c2ccccc2)c2ccccc2)CCP(c2ccccc2)c2ccccc2)cc1 [Compound 6, bis(2-diphenylphosphinoethyl)phenylphosphine] | 80% and 50% |  | 32 mg/kg | 
c1ccc(P(CCP(CCP(c2ccccc2)c2ccccc2)CCP(c2ccccc2)c2ccccc2)c2ccccc2)cc1 [Compound 7, tris(diphenylphosphinoethyl)phosphine] | 35% and 30% |  | 64 mg/kg | 
CC(CP(c1ccccc1)c1ccccc1)(CP(c1ccccc1)c1ccccc1)CP(c1ccccc1)c1ccccc1 [Compound 9, μ-[1,1,1-Tris(diphenylphosphinomethyl)ethane]] | 45% and 25% |  | 128 mg/kg | 
μ-[1,1,4,7,10,10-Hexaphenyl-1,4,7,10-tetraphosphodecane]tetrakis(1-thio- β-D-glucopyranosato-S)gold [Compound 4] | 100% and 55% | 8 mg/kg |  | 
μ-[1,1,4,7,10,10-Hexaphenyl-1,4,7,10-tetraphosphodecane]tetrakis(chlorogold) [Compound 3] |  | 12 mg/kg |  | ILS (MAX) [3]: 96%; MTD (B6D2F1 mice): 6 mg/kg; MTD (B6D2F female mice [4]): 8 mg/kg; ILS (B16 melanoma): 30% and 51%
μ-[1,1,1-Tris(diphenylphosphinomethyl)ethane]tris(chlorogold) [Compound 5] | 40% and 30% | 20 mg/kg |  | 
c1ccc(P(CCP(CCP(c2ccccc2)c2ccccc2)c2ccccc2)CCP(c2ccccc2)c2ccccc2)cc1 (stereo not drawn) [Compound 8, 1,1,4,7,10,10-hexaphenyl-1,4,7,10-tetraphosphodecane] | 25% and 40% |  | 64 mg/kg | 
